Measured values from ChEMBL document CHEMBL5230129, “Antibacterial activities with the structure-activity relationship of coumarin derivatives” (2020).
Values after ≈ are worked out from the molar mass of the structure shown.

Key:
Assay type in all cases: functional
[1] = tested on: Escherichia coli; test: Antibacterial activity against Escherichia coli MTCC 40 assessed as zone of inhibition incubated for 24 hrs by well-plate method
[2] = tested on: Staphylococcus aureus; test: Antibacterial activity against Staphylococcus aureus assessed as inhibition of bacterial growth by broth micro dilution assay
[3] = tested on: Bacillus; test: Antibacterial activity against Bacillus assessed as inhibition of bacterial growth by broth micro dilution assay
[4] = tested on: Escherichia coli; test: Antibacterial activity against Escherichia coli assessed as inhibition of bacterial growth by broth micro dilution assay
[5] = tested on: Bacillus subtilis; test: Antibacterial activity against Bacillus subtilis assessed as inhibition of bacterial growth relative to control
[6] = tested on: Escherichia coli; test: Antibacterial activity against Escherichia coli assessed as inhibition of bacterial growth relative to control
[7] = tested on: Enterococcus faecalis; test: Antibacterial activity against Enterococcus faecalis PCM 2673 assessed as inhibition of bacterial growth incubated for 24 hrs by microbroth dilution assay
[8] = tested on: Escherichia coli; test: Antibacterial activity against Escherichia coli ATCC 8739 assessed as inhibition of bacterial growth incubated for 24 hrs by microbroth dilution assay
[9] = tested on: Escherichia coli; test: Antibacterial activity against Escherichia coli MTCC 443 assessed as inhibition of bacterial growth incubated for 18 to 20 hrs by broth microdilution assay; conditions: time 18-20 hrs
[10] = tested on: Staphylococcus aureus; test: Antibacterial activity against Staphylococcus aureus MTCC 96 assessed as inhibition of bacterial growth incubated for 18 to 20 hrs by broth microdilution assay; conditions: time 18-20 hrs
[11] = tested on: Escherichia coli; test: Antibacterial activity against Escherichia coli NCIM 2256 assessed as inhibition of bacterial growth incubated for 24 hrs by serial twofold dilution assay
[12] = tested on: Pseudomonas fluorescens; test: Antibacterial activity against Pseudomonas fluorescens NCIM 2173 assessed as inhibition of bacterial growth incubated for 24 hrs by serial twofold dilution assay
[13] = tested on: Sphingomonas paucimobilis; test: Antibacterial activity against Flavobacterium devorans ATCC 10829 assessed as inhibition of bacterial growth incubated for 24 hrs by serial twofold dilution assay
[14] = tested on: Pseudomonas; test: Antibacterial activity against Pseudomonas assessed as zone of inhibition
[15] = tested on: Staphylococcus aureus; test: Antibacterial activity against Staphylococcus aureus assessed as zone of inhibition incubated for 3 days by cup plate agar diffusion assay; conditions: time 3 day
[16] = tested on: Bacillus subtilis; test: Antibacterial activity against Bacillus subtilis assessed as zone of inhibition incubated for 3 days by cup plate agar diffusion assay; conditions: time 3 day
[17] = tested on: Escherichia coli; test: Antibacterial activity against Escherichia coli assessed as zone of inhibition incubated for 3 days by cup plate agar diffusion assay; conditions: time 3 day
[18] = tested on: Pseudomonas aeruginosa; test: Antibacterial activity against Pseudomonas aeruginosa assessed as zone of inhibition incubated for 3 days by cup plate agar diffusion assay; conditions: time 3 day
[19] = tested on: Staphylococcus aureus; test: Antibacterial activity against Staphylococcus aureus assessed as inhibition of bacterial growth by broth dilution assay
[20] = tested on: Bacillus subtilis; test: Antibacterial activity against Bacillus subtilis assessed as inhibition of bacterial growth by broth dilution assay
[21] = tested on: Escherichia coli; test: Antibacterial activity against Escherichia coli 1411 assessed as inhibition of bacterial growth incubated for 24 hrs by two-fold serial dilution method
[22] = tested on: Escherichia coli; test: Antibacterial activity against Escherichia coli SM1411 assessed as inhibition of bacterial growth incubated for 24 hrs by two-fold serial dilution method
[23] = tested on: Escherichia coli; test: Antibacterial activity against Escherichia coli ATCC 25922 assessed as zone of inhibition incubated for 24 hrs by paper disk method
[24] = tested on: Pseudomonas aeruginosa; test: Antibacterial activity against Pseudomonas aeruginosa ATCC 27853 assessed as zone of inhibition incubated for 24 hrs by paper disk method
[25] = tested on: Klebsiella pneumoniae; test: Antibacterial activity against Klebsiella pneumoniae assessed as zone of inhibition incubated for 24 hrs by disk diffusion assay

## O=c1oc2ccccc2cc1-c1nn(-c2ccccc2)cc1/C=N/Nc1nc(-c2ccccc2)cs1
[1]
  inhibition zone (IZ): 19 mm

## COc1ccc2oc(=O)cc(C3NNC(=O)N3)c2c1 (stereo not given)
[2]
  MIC: 0.8 µg/mL (≈ 3.06 µM)
[3]
  MIC: 0.8 µg/mL (≈ 3.06 µM)
[4]
  MIC: 0.8 µg/mL (≈ 3.06 µM)

## COC(=O)c1nnn(CC(=O)c2cc3cc(Br)ccc3oc2=O)c1C(=O)OC
[5]
  inhibition (INH): 82.2%
[6]
  inhibition (INH): 88.8%

## O=C(N[C@H](CO)[C@H](O)c1ccc([N+](=O)[O-])cc1)C(Cl)Cl [CHLORAMPHENICOL]
[7]
  MIC: 5 µg/mL (≈ 15.5 µM)
[8]
  MIC: 1.2 µg/mL (≈ 3.71 µM)
[9]
  MIC: 50 µg/mL (≈ 155 µM)
[10]
  MIC: 50 µg/mL (≈ 155 µM)
[11]
  MIC: 2 µg/mL (≈ 6.19 µM)
[12]
  MIC: 2 µg/mL (≈ 6.19 µM)
[13]
  MIC: 2 µg/mL (≈ 6.19 µM)

## O=C1NNC(c2cc(=O)oc3ccc(Cl)cc23)N1 (stereo not given)
[2]
  MIC: 25 µg/mL (≈ 94.1 µM)
[3]
  MIC: 6.25 µg/mL (≈ 23.5 µM)
[4]
  MIC: 25 µg/mL (≈ 94.1 µM)

## O=c1cc(-c2nc3ccccc3[nH]2)c2cc(Br)ccc2o1
[14]
  inhibition zone (IZ): 4.8 mm

## O=c1cc(OCc2cn(-c3cccc([N+](=O)[O-])c3)nn2)c2ccccc2o1
[7]
  MIC: 400 µg/mL (≈ 1100 µM)
[8]
  MIC: 1600 µg/mL (≈ 4390 µM)

## COc1ccc(/C=C/C(=O)c2c(OCc3cnnn3Cc3ccccc3)ccc3c(C)cc(=O)oc23)cc1
[15]
  inhibition zone (IZ): 28 mm
[16]
  inhibition zone (IZ): 11 mm
[17]
  inhibition zone (IZ): 28 mm
[18]
  inhibition zone (IZ): 9 mm

## COc1ccccc1-n1cc(COc2cc(=O)oc3ccccc23)nn1
[7]
  MIC: 12.5 µg/mL (≈ 35.8 µM)
[8]
  MIC: 1600 µg/mL (≈ 4580 µM)

## O=c1oc2ccc(Br)cc2cc1-c1cc2c(ccc3ccccc32)o1
[19]
  MIC: 0.2 µg/mL (≈ 0.511 µM)
[20]
  MIC: 6.25 µg/mL (≈ 16 µM)

## COc1cc(C2CC(c3cc4ccccc4oc3=O)=NN2)ccc1O (stereo not given)
[21]
  MIC: 14 µg/mL (≈ 41.6 µM)
[22]
  MIC: 14 µg/mL (≈ 41.6 µM)

## Cc1cc(=O)oc2c(C(=O)/C=C/c3ccccc3)c(OCc3cnnn3Cc3ccccc3)ccc12
[15]
  inhibition zone (IZ): 11 mm
[16]
  inhibition zone (IZ): 8 mm
[17]
  inhibition zone (IZ): 10 mm
[18]
  inhibition zone (IZ): 4 mm

## O=C(COc1cc(=O)oc2ccccc12)N(c1ccccc1)c1ccccc1
[23]
  inhibition zone (IZ): 10 mm
[24]
  inhibition zone (IZ): 12 mm

## C[C@@H](NC(=O)COc1cc(=O)oc2ccccc12)c1cccc2ccccc12
[23]
  inhibition zone (IZ): 12 mm
[24]
  inhibition zone (IZ): 14 mm

## Cc1cc(OCc2cn(Cc3ccc([N+](=O)[O-])cc3)nn2)cc2oc(=O)ccc12
[11]
  MIC: 2 µg/mL (≈ 5.1 µM)
[12]
  MIC: 2 µg/mL (≈ 5.1 µM)
[13]
  MIC: 16 µg/mL (≈ 40.8 µM)

## Cc1cc(=O)oc2c(C(=O)/C=C/c3ccc(Cl)cc3)c(OCc3cnnn3Cc3ccccc3)ccc12
[15]
  inhibition zone (IZ): 25 mm
[16]
  inhibition zone (IZ): 10 mm
[17]
  inhibition zone (IZ): 23 mm
[18]
  inhibition zone (IZ): 8 mm

## O=c1cc(-c2nc3ccccc3[nH]2)c2cc(Cl)ccc2o1
[14]
  inhibition zone (IZ): 8 mm

## Cc1cc(C)c2c(C3NNC(=O)N3)cc(=O)oc2c1 (stereo not given)
[2]
  MIC: 6.25 µg/mL (≈ 24.1 µM)
[3]
  MIC: 6.25 µg/mL (≈ 24.1 µM)
[4]
  MIC: 50 µg/mL (≈ 193 µM)

## Cc1ccc2c(-c3nc4ccccc4[nH]3)cc(=O)oc2c1
[14]
  inhibition zone (IZ): 4.1 mm

## N[C@@H]1CONC1=O [CYCLOSERINE]
[21]
  MIC: 16 µg/mL (≈ 157 µM)
[22]
  MIC: 16 µg/mL (≈ 157 µM)

## Cc1cc(OCc2cn(Cc3ccc(Br)cc3)nn2)cc2oc(=O)ccc12
[11]
  MIC: 4 µg/mL (≈ 9.38 µM)
[12]
  MIC: 4 µg/mL (≈ 9.38 µM)
[13]
  MIC: 2 µg/mL (≈ 4.69 µM)

## O=c1oc2ccc3ccccc3c2cc1-c1csc(N/N=C/c2cn(-c3ccccc3)nc2-c2cc3ccccc3oc2=O)n1
[1]
  inhibition zone (IZ): 21 mm

## CC1(C)S[C@@H]2[C@H](NC(=O)[C@H](N)c3ccc(O)cc3)C(=O)N2[C@H]1C(=O)O [AMOXICILLIN]
[15]
  inhibition zone (IZ): 30 mm
[16]
  inhibition zone (IZ): 12 mm
[17]
  inhibition zone (IZ): 30 mm
[18]
  inhibition zone (IZ): 10 mm

## Cc1cc(=O)oc2c(C(=O)/C=C/c3ccc(F)cc3)c(OCc3cnnn3Cc3ccccc3)ccc12
[15]
  inhibition zone (IZ): 27 mm
[16]
  inhibition zone (IZ): 11 mm
[17]
  inhibition zone (IZ): 27 mm
[18]
  inhibition zone (IZ): 10 mm

## Cc1ccc(C2CC(c3cc4ccccc4oc3=O)=NN2)cc1 (stereo not given)
[21]
  MIC: 16 µg/mL (≈ 52.6 µM)
[22]
  MIC: 18 µg/mL (≈ 59.1 µM)

## GENTAMICIN
[25]
  inhibition zone (IZ): 16 mm

## COC(=O)c1nnn(CC(=O)c2cc3cc(Cl)ccc3oc2=O)c1C(=O)OC
[5]
  inhibition (INH): 83.3%
[6]
  inhibition (INH): 83.3%

## Cc1cc(OCc2cn(Cc3ccc(Cl)cc3)nn2)cc2oc(=O)ccc12
[11]
  MIC: 2 µg/mL (≈ 5.24 µM)
[12]
  MIC: 2 µg/mL (≈ 5.24 µM)
[13]
  MIC: 2 µg/mL (≈ 5.24 µM)

## Cc1ccc2oc(-c3cc4ccccc4oc3=O)cc2c1
[19]
  MIC: 0.2 µg/mL (≈ 0.724 µM)
[20]
  MIC: 0.4 µg/mL (≈ 1.45 µM)

## COC(=O)c1nnn(CC(=O)c2cc3c(ccc4ccccc43)oc2=O)c1C(=O)OC
[5]
  inhibition (INH): 83.3%
[6]
  inhibition (INH): 83.3%
